Literature values in patent US20100035939A1, “PENETRATING CARRIER, ANTI-FUNGAL COMPOSITION USING THE SAME AND METHOD FOR TREATMENT OF DERMATOPHYTES” (priority 2004, published 2010).

System: fungal toenail

SMILES: CN(C/C=C/C#CC(C)(C)C)Cc1cccc2ccccc12 [terbinafine]
- patients with a serious reaction to the drug (in vivo, po): One in 500
- reoccurrence of the fungal toenail (oral administration, in the first year): 15%
